Results on 1 molecule are retold here after patent publication US8545872B2, “Device for the transdermal administration of a rotigotine base” (UCB Pharma GmbH, priority 2002, dated 2013).

The conditions of data set [1]: cited from earlier work.
Data set [2] can be described thus: Solubility of rotigotine in polymers and solvents. It is filed as physicochemical. The conditions noted are these: e.g. hexane, ethyl acetate and toluol.

Turning to `CCCN(CCc1cccs1)[C@H]1CCc2c(O)cccc2C1` [Rotigotine, (−)-5,6,7,8-tetrahydro-6-[propyl[2-(2-thienyl)ethyl]amino]-1-naphtol], the “Solubility in hydrophobic polymers such as silicon” value in data set [1] is listed as “only feebly soluble”. The “Solubility of the crystals in solvents suitable for dissolving matrix polymers” value in data set [2] is “nearly insoluble”.
